The results in this text go back to patent US6984660B2, “P-thienylbenzylamides as agonists of angiotensin-(1-7) receptors, and methods of their preparation and use” (Aventis Pharma Deutschland GmbH, priority 2001, dated 2006).

In data set [1] the test system is primarily cultivated endothelial cells derived from bovine aortas. Briefly: Test 2: functional assay, stimulation of intracellular cGMP production in endothelial cells. It is filed as cell-based. The following applies: for EC50: Bos taurus, Endothelial cell, production of intracellular cGMP, marker for NO production and release, radioimmunoassay; for stimulatory effect on cGMP after preincubation with a selective angiotensin-(1-7) receptor antagonist: preincubation with [D-Ala^7]-angiotensin-(1-7); for effect on the production of cGMP after preincubation with an AT1 receptor antagonist: preincubation with angiotensin II AT1 subtype antagonist, such as EXP3174; for effect on the production of cGMP after preincubation with an AT2 receptor antagonist: preincubation with angiotensin II AT2 subtype antagonist, such as PD 123,319. The procedure:
The stimulatory effect of the compounds of formula (I) on the production of intracellular cGMP, which is a marker for the production and release of NO in endothelial cells, was measured on primarily cultivated endothelial cells derived from bovine aortas, as described, for example, in J. Pharmacol. Exp. Ther. (1992) 262:729-733, herein incorporated by reference.
After having been enzymatically digested (dispase II; Boehringer, Mannheim) from the bovine aorta, the endothelial cells were taken up in culture medium (Dulbecco's modified Eagle's Ham's F 12 medium 1:1 containing penicillin (10 U/L), streptomycin (10 ug/L), L-glutamine (1 mmol/L), glutathione and L-(+)-ascorbic acid (in each case 5 mg/L) and heat-inactivated fetal calf serum (20%)), washed once (centrifugation at 170×g, 10 min) and resuspended in culture medium. This cell suspension was seeded in 6-well plates (Nunc Intermed, Wiesbaden) (˜250 μg of protein or […] per well), with the wells then being filled with culture medium and the plates kept at 37° C. in an incubator which was moistened and gassed with 95% O2-5% CO2.
After confluence had been reached (6-8 days after seeding), the culture medium was removed and the cell monolayer was washed twice with warm HEPES/Tyrode's solution. After that, the cells were preincubated, at 37° C. for 15 min, in HEPES/Tyrode's solution containing IBMX (3-isobutyl-1-methylxanthine, 10^−4 mol/L, Serva, Heidelberg). The incubation was started by adding SOD (bovine erythrocyte superoxide dismutase, 3×10^−7 mol/L, Serva, Heidelberg) and the test substances of formula (I) at the given concentrations. After the appropriate incubation time, the incubation medium was aspirated and the cells which remained behind were immediately extracted in 1 N formic acid/acetone (v/v, 15:85) and scraped off. The resulting suspension was ultrasonicated (10 sec) and then centrifuged down (3000×g, 10 min). For the purpose of determining cGMP by means of radioimmunoassay (New England Nuclear, Boston, Mass.), the supernatant was lyophilized and the lyophilisate taken up in sodium acetate buffer (0.05 mol/L; pH 6.2). The content (pmol) of intracellular cGMP was related to mg of cell protein.

For the compound `CNC(=O)NS(=O)(=O)c1sc(CC(C)C)cc1-c1ccc(CN(C(=O)CCC(=O)OC)[C@H](C(=O)OC)C(C)C)cc1` [Example 18], the melting point came to 158 °C. `CCNC(=O)NS(=O)(=O)c1sc(CC(C)C)cc1-c1ccc(CN(C(=O)c2ccccc2)[C@H](C(=O)OC)C(C)C)cc1` [Example 4, Methyl 2-N-benzoyl-2-N-[4-[2-(ethylaminocarbonylsulfonamido)-5-isobutyl-3-thienyl]benzyl]amino-3-methyl-L-butyrate]: the melting point worked out at 65 °C. In data set [1], a half-maximal effect (EC50) was put at 0.6 µM, the “stimulatory effect on cGMP after preincubation with a selective angiotensin-(1-7) receptor antagonist” value is on record as “inhibited”, the “effect on the production of cGMP after preincubation with an AT1 receptor antagonist” value is on record as “not influenced” and the “effect on the production of cGMP after preincubation with an AT2 receptor antagonist” value is reported as “not influenced”. The compound `CCNC(=O)NS(=O)(=O)c1sc(CC(C)C)cc1-c1ccc(CN(C(=O)c2ccccc2)[C@H](C(=O)O)C(C)C)cc1` [Example 6, 2-N-Benzoyl-2-N-[4-[2-(ethylaminocarbonylsulfonamido)-5-isobutyl-3-thienyl]benzyl]amino-3-methyl-L-butyric acid] showed a melting point of 149 °C.

As for `CCNC(=O)NS(=O)(=O)c1sc(CC(C)C)cc1-c1ccc(CN(C(C)=O)[C@H](C(=O)OC)C(C)C)cc1` [Example 9, Methyl 2-N-acetyl-2-N-[4-[2-(ethylaminocarbonylsulfonamido)-5-isobutyl-3-thienyl]benzyl]amino-3-methyl-L-butyrate], the melting point came to 130 °C. In data set [1], the EC50 was found to be 0.04 µM, the “stimulatory effect on cGMP after preincubation with a selective angiotensin-(1-7) receptor antagonist” value is “inhibited”, the “effect on the production of cGMP after preincubation with an AT1 receptor antagonist” value is reported as “not influenced” and the “effect on the production of cGMP after preincubation with an AT2 receptor antagonist” value was “not influenced”. `CCNC(=O)NS(=O)(=O)c1sc(CC(C)C)cc1-c1ccc(CN(C(=O)c2ccccc2)[C@H](C(=O)OCC)C(C)C)cc1` [Example 5, Ethyl 2-N-benzoyl-2-N-[4-[2-(ethylaminocarbonylsulfonamido)-5-isobutyl-3-thienyl]benzyl]amino-3-methyl-L-butyrate]: the melting point was in the range of 88 to 90 °C. Still for that read-out and setting: next, `CNC(=O)NS(=O)(=O)c1sc(CC(C)C)cc1-c1ccc(CN(C(=O)c2ccco2)[C@H](C(=O)O)C(C)C)cc1` [Example 15, 2-N-(2-Furanoyl)-2-N-[4-[2-(methylaminocarbonylsulfonamido)-5-isobutyl-3-thienyl]benzyl]amino-3-methyl-L-butyric acid]: 134 °C. The same measure, in the same setting: next, `CCNC(=O)NS(=O)(=O)c1sc(CC(C)C)cc1-c1ccc(CN(C(C)=O)[C@H](C(=O)OCC)C(C)C)cc1` [Example 10, Ethyl 2-N-acetyl-2-N-[4-[2-(ethylaminocarbonylsulfonamido)-5-isobutyl-3-thienyl]benzyl]amino-3-methyl-L-butyrate]: 81 °C; `CNC(=O)NS(=O)(=O)c1sc(CC(C)C)cc1-c1ccc(CN(C(=O)c2ccco2)[C@H](C(=O)OC)C(C)C)cc1` [Example 14, Methyl 2-N-(2-furanoyl)-2-N-[4-[2-(methylaminocarbonylsulfonamido)-5-isobutyl-3-thienyl]benzyl]amino-3-methyl-L-butyrate]: 84 °C; `CCCCOC(=O)NS(=O)(=O)c1sc(CC(C)C)cc1-c1ccc(CN(C(=O)CCC(=O)O)[C@H](C(=O)O)C(C)C)cc1` [Example 17, 2-N-(3-Carboxypropionyl)-2-N-[4-[2-(n-butyloxycarbonylsulfonamido)-5-isobutyl-3-thienyl]benzyl]amino-3-methyl-L-butyric acid]: 66 °C. The same measure, in the same setting: next, `CCCCOC(=O)NS(=O)(=O)c1sc(CC(C)C)cc1-c1ccc(CN(C(=O)c2ccco2)[C@H](C(=O)O)C(C)C)cc1` [Example 13, 2-N-(2-Furanoyl)-2-N-[4-[2-(n-butyloxycarbonylsulfonamido)-5-isobutyl-3-thienyl]benzyl]amino-3-methyl-L-butyric acid]: 93 °C; `CCNC(=O)NS(=O)(=O)c1sc(CC(C)C)cc1-c1ccc(CN(C(C)=O)[C@H](C(=O)O)C(C)C)cc1` [Example 11, 2-N-Acetyl-2-N-[4-[2-(ethylaminocarbonylsulfonamido)-5-isobutyl-3-thienyl]benzyl]amino-3-methyl-L-butyric acid]: 136 °C.

The term melting point denotes the temperature of the solid-liquid transition. As a reminder, the EC50 is the concentration at which the effect is half-maximal. A higher EC50 goes with a need for much substance.
